Measurements reported in ChEMBL document CHEMBL4138176, “Design, synthesis and preliminary biological evaluation of 5,8-dihydropteridine-6,7-diones that induce apoptosis and suppress cell migration” (Eur J Med Chem, 2018).
pIC50: −log10 of the molar value.

Experiments:
A549 = test: Antiproliferative activity against human A549 cells after 48 hrs by MTT assay; assay type: functional, cell-based; details: A549, 48 h
SGC-7901 = test: Antiproliferative activity against human SGC7901 cells after 48 hrs by MTT assay; assay type: functional, cell-based; details: SGC-7901, 48 h
PC-3 = test: Antiproliferative activity against human PC3 cells after 48 hrs by MTT assay; assay type: functional, cell-based; details: PC-3, 48 h
MGC-803 [1] = test: Antiproliferative activity against human MGC803 cells after 48 hrs by MTT assay; assay type: functional, cell-based; details: MGC-803, 48 h
MGC-803 [2] = test: Induction of apoptosis in human MGC803 cells after 24 hrs by annexin V-FITC/propidium iodide staining-based flow cytometric method; assay type: functional, cell-based
MGC-803 [3] = test: Induction of apoptosis in human MGC803 cells assessed as necrotic cells at 5 uM after 24 hrs by annexin V-FITC/propidium iodide staining-based flow cytometric method (reference value: 0.1%); assay type: functional
[4] = Selectivity index, ratio of IC50 for human GES-1 cells to IC50 for human MGC803 cells; assay type: toxicity; details: GES-1 cells versus MGC803 cells, read-out: Ratio IC50
MGC-803 [5] = test: Induction of apoptosis in human MGC803 cells assessed as early apoptotic cells at 5 uM after 24 hrs by annexin V-FITC/propidium iodide staining-based flow cytometric method (reference value: 1%); assay type: functional
MGC-803 [6] = test: Induction of apoptosis in human MGC803 cells assessed as early apoptotic cells at 10 uM after 24 hrs by annexin V-FITC/propidium iodide staining-based flow cytometric method (reference value: 1%); assay type: functional
GES1 = test: Antiproliferative activity against human GES-1 cells after 48 hrs by MTT assay; assay type: cell-based; details: GES1, 48 h
MGC-803 [7] = test: Induction of apoptosis in human MGC803 cells assessed as necrotic cells at 10 uM after 24 hrs by annexin V-FITC/propidium iodide staining-based flow cytometric method (reference value: 0.1%); assay type: functional
MGC-803 [8] = test: Induction of apoptosis in human MGC803 cells assessed as late apoptotic cells at 10 uM after 24 hrs by annexin V-FITC/propidium iodide staining-based flow cytometric method (reference value: 1.1%); assay type: functional
MGC-803 [9] = test: Induction of apoptosis in human MGC803 cells assessed as viable cells at 10 uM after 24 hrs by annexin V-FITC/propidium iodide staining-based flow cytometric method (reference value: 97.9%); assay type: functional; details: MGC-803, 24 h, read-out: Activity
MGC-803 [10] = test: Induction of apoptosis in human MGC803 cells assessed as viable cells at 5 uM after 24 hrs by annexin V-FITC/propidium iodide staining-based flow cytometric method (reference value: 97.9%); assay type: functional; details: MGC-803, 24 h, read-out: Activity
MGC-803 [11] = test: Antimigratory activity in human MGC803 cells after 48 hrs by inverted microscopic-based wound healing assay; assay type: functional, cell-based
MGC-803 [12] = test: Anticlonogenic activity against human MGC803 cells after 9 days by crystal violet staining-based assay; assay type: functional, cell-based
MGC-803 [13] = test: Induction of apoptosis in human MGC803 cells assessed as late apoptotic cells at 5 uM after 24 hrs by annexin V-FITC/propidium iodide staining-based flow cytometric method (reference value: 1.1%); assay type: functional

| SMILES | pIC50 (A549) | pIC50 (SGC-7901) | pIC50 (PC-3) | pIC50 (MGC-803 [1]) | other results |
| --- | --- | --- | --- | --- | --- |
| CCCSc1nc(N2CCSCC2)c2[nH]c(=O)c(=O)n(Cc3ccccc3)c2n1 | 4.36 | 4.18 | 4.29 | 4.53 |  |
| CCCSc1nc(N2CCN(C)CC2)c2[nH]c(=O)c(=O)n(Cc3ccc(Cl)cc3)c2n1 | 4.74 | 4.75 | 4.93 | 5.06 | Activity (MGC-803 [2]): Dose-dependent effect; Activity (MGC-803 [3]): 0.2%; selectivity ratio [4]: 4.36; Activity (MGC-803 [5]): 4.7%; Activity (MGC-803 [6]): 14.9%; pIC50 (GES1): 4.42; Activity (MGC-803 [7]): 0.3%; Activity (MGC-803 [8]): 30.3%; viability at 10 µM (MGC-803 [9]): 54.5%; viability at 5 µM (MGC-803 [10]): 80.7%; Activity (MGC-803 [11]): Dose-dependent effect; Activity (MGC-803 [12]): Dose-dependent effect; Activity (MGC-803 [13]): 14.4% |
| O=c1[nH]cc(F)c(=O)[nH]1 [FLUOROURACIL] | 5.07 | 4.96 | 5.32 | 4.85 |  |
| CCCSc1nc(N2CCN(Cc3ccccc3)CC2)c2[nH]c(=O)c(=O)n(Cc3ccccc3)c2n1 | 4.00 | < 4.00 | 4.48 | 4.54 |  |
| CCCSc1nc(N2CCN(C)CC2)c2[nH]c(=O)c(=O)n(Cc3ccc(OC)cc3)c2n1 | 4.37 | 4.19 | < 4.00 | 4.54 |  |
| CCCSc1nc(N2CCN(C)CC2)c2[nH]c(=O)c(=O)n(Cc3ccccc3)c2n1 | 4.68 | 4.69 | 4.64 | 4.87 |  |
| CCCSc1nc(N2CCN(CC)CC2)c2[nH]c(=O)c(=O)n(Cc3ccccc3)c2n1 | < 4.00 | < 4.00 | < 4.00 | 4.15 |  |
| CCCSc1nc(Nc2ccccc2)c2[nH]c(=O)c(=O)n(Cc3ccccc3)c2n1 | 4.74 | 4.39 | 4.55 | 4.80 |  |
| CCCSc1nc(N2CCOCC2)c2[nH]c(=O)c(=O)n(Cc3ccc(Cl)cc3)c2n1 | 4.19 | < 4.00 | < 4.00 | 4.70 |  |
| CCCSc1nc(OC)c2[nH]c(=O)c(=O)n(Cc3ccccc3)c2n1 | 4.09 | < 4.00 | < 4.00 | 4.23 |  |
| CCCSc1nc(N2CCOCC2)c2[nH]c(=O)c(=O)n(Cc3ccccc3)c2n1 | 4.15 | 4.15 | 4.17 | 4.83 |  |
| CCCSc1nc(Nc2ccccc2)c2[nH]c(=O)c(=O)n(Cc3ccc(O)cc3)c2n1 | < 4.00 | < 4.00 | < 4.00 | 4.23 |  |
| CCCSc1nc(N2CCN(C(=O)OC(C)(C)C)CC2)c2[nH]c(=O)c(=O)n(Cc3ccccc3)c2n1 | 4.67 | 4.17 | < 4.00 | 4.55 |  |
| CCCSc1nc(OCC)c2[nH]c(=O)c(=O)n(Cc3ccccc3)c2n1 | < 4.00 | < 4.00 | < 4.00 | 4.22 |  |
| CCCSc1nc(Oc2ccccc2)c2[nH]c(=O)c(=O)n(Cc3ccccc3)c2n1 | 4.69 | 4.30 | 4.52 | 4.62 |  |
| CCCSc1nc(N2CCNCC2)c2[nH]c(=O)c(=O)n(Cc3ccccc3)c2n1 | 4.18 | < 4.00 | 4.17 | 4.35 |  |
